# According to patent US20240391954A1, “MC4R AGONIST PEPTIDES” (The Regents of the University of Michigan, priority 2021, published 2024):
# Where “and” joins values, the source holds several entries; their conditions need not be identical. Identical values can stand only once. Positions of bridges follow the written chain, without caps; N, C: chain ends. Non-standard residues stand in square brackets, D forms with d. Residues, ends and D or L forms follow the SMILES beside them. Nle = CCCC[C@H](N)C(=O)O
# How the values were obtained:
# [1] = Pharmacokinetics: plasma and brain concentration after IP injection; format: in vivo, mouse; conditions: IP 15 mg/kg; for Brain concentration, individual mice 1-3 / Plasma concentration, individual mice 1-3: 15 mg/kg
# Method: FIG. 5. Pharmacokinetic data for an exemplary peptide relative to setmelanotide. Peptides at 1.5 mg/mL in PBS containing 10% DMSO and 10% PEG-400 were given by IP injection (15 mg/kg) to female CD-1 mice (n=15). At the given time points (0.5 h, 2 h, 4 h, 7 h and 24 h), brain samples were taken out and frozen at −80° C. immediately for later preparation and analysis, and blood samples were collected using heparinized calibrated pipettes. Blood samples were centrifuged at 15000 rpm for 10 min. Subsequently, blood plasma was collected from the upper layer. The plasma was frozen at −80° C. for later analysis. Peptide concentrations at times indicated were determined by LC MS/MS, using non-zero standards in blank Plasma and Brain Samples.
# The drug at 1.5 mg/mL in PBS containing 10% DMSO and 10% PEG-400 was given by IP injection (15 mg/kg). At the given time points (0.5 h, 2 h, 4 h, 7 h and 24 h), brain samples were taken out and frozen at −80° C. immediately for later preparation and analysis, and blood samples were collected using heparinized calibrated pipettes. Blood samples were centrifuged at 15000 rpm for 10 min. Subsequently, blood plasma was collected from the upper layer. The plasma was frozen at −80° C. for later analysis.
# The analytical curves were constructed using non-zero standards in the blank Plasma and Brain Samples. A blank sample (matrix sample processed without internal standard) was used to exclude contamination. The linear regression analysis of CTX1227/setmelanotide were performed by plotting the peak area ratio (y) against the CTX1227/setmelanotide concentration (x) in ng/mL, respectively.
# Mouse plasma stability = format: in vitro ADME; conditions: pooled mouse plasma, 37° C.
# Method: FIG. 3. Results of plasma stability testing for control peptides. Compounds shown were incubated in mouse plasma at 37° C. at 1 μM concentrations. 40 ul aliquots were removed at the times indicated and the reactions stopped with the addition of 160 μL cold acetonitrile containing 200 ng/ml of peptide internal standard (IS). The incubation solution was centrifuged at 3500 rpm for 10 minutes to precipitate protein. LC/MS/MS analysis was used to determine the % peptide remaining.
# Pooled mouse plasma was prepared and stored at −80° C, prior to use, 396 μL mouse plasma was incubated at 37° C. for 5 minutes in 1.5 mL microcentrifuge tubes. 4 μL of 100 μM test or control compound/peptide was added to each tube and incubated for 0.5, 15, 30, 60, 120, or 240 minutes. An aliquot of 40 μL of each reaction was stopped by the addition of 4 volume of cold acetonitrile containing 200 ng/mL of […] solution was centrifuged at 3500 rpm for 10 minutes to precipitate protein. The supernatant was used for LC/MS/MS analysis. The natural log peak area ratio (compound peak area/internal standard peak area) was plotted against time and the gradient of the line determined.
# human MC1R = target: T1, human MC1R (Homo sapiens, UniProt Q01726); assay: split-luciferase cAMP sensor assay, agonist mode, hMC1R; format: cell-based; conditions: MC4R versus MC1R
# T1 construct: expressed in transfected cells; host or cells: HEK-293 cells stably expressing hMC1R and the GScAMP22F cAMP sensor
# Method in brief: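 HEK-293 cells stably expressing hMC1R and the GScAMP22F split-luciferase cAMP sensor, preloaded 120 min at 37° C with D-luciferin in serum-free medium. Peptide responses were taken as peak luminescence over 2-13 min minus 2-min baseline, normalized to the α-MSH ECmax. EC50 was obtained from a four-parameter variable-slope fit.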
# T1 sequence (Q01726 whole entry): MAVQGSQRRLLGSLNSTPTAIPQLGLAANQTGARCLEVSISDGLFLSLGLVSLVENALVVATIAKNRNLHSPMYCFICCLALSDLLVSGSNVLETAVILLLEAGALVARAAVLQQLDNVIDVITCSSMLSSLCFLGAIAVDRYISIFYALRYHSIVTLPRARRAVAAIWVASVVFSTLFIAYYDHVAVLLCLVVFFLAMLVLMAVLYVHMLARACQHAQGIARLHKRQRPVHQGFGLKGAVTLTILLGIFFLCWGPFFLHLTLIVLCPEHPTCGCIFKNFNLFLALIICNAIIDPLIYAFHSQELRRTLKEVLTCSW
smiles,measurement,setting,value
"CCCC[C@H](NC(=O)[C@H](CCCNC(=N)N)NC(C)=O)C(=O)N[C@H]1CSSC[C@@H](C(N)=O)NC(=O)[C@H](Cc2c[nH]c3ccccc23)NC(=O)[C@H](CCCNC(=N)N)NC(=O)[C@@H](Cc2ccccc2)NC(=O)[C@H](Cc2c[nH]cn2)NC1=O [CTX-1227, Arg-Nle-cyclo(Cys-His-D-Phe-Arg-Trp-Cys)] (Ac-R[Nle]CH[dF]RWC-NH2; disulfide 3-8 (inferred))","Brain concentration, individual mice 1-3","[1]; 0.5 h, brain, individual animals",99 ng/g and 263.5 ng/g and 182 ng/g
same,"Plasma concentration, individual mice 1-3","[1]; 0.5 h, plasma, individual animals",20900 ng/mL and 25000 ng/mL and 68700 ng/mL
same,"Brain concentration, individual mice 1-3","[1]; 2 h, brain, individual animals",287.5 ng/g and 176.5 ng/g and 327.5 ng/g
same,"Plasma concentration, individual mice 1-3","[1]; 2 h, plasma, individual animals",50200 ng/mL and 17300 ng/mL and 20700 ng/mL
same,"Brain concentration, individual mice 1-3","[1]; 4 h, brain, individual animals",158 ng/g and 142.5 ng/g and 210 ng/g
same,"Plasma concentration, individual mice 1-3","[1]; 4 h, plasma, individual animals",19400 ng/mL and 23300 ng/mL and 33400 ng/mL
same,"Brain concentration, individual mice 1-3","[1]; 7 h, brain, individual animals",223 ng/g and 224.5 ng/g and 119 ng/g
same,"Plasma concentration, individual mice 1-3","[1]; 7 h, plasma, individual animals",9360 ng/mL and 9210 ng/mL and 2880 ng/mL
same,"Brain concentration, individual mice 1-3","[1]; 24 h, brain, individual animals",BlQ and BLQ (2×)
same,"Plasma concentration, individual mice 1-3","[1]; 24 h, plasma, individual animals",BLQ
same,tissue level at time at 0.5 h,"[1]; female, CD-1, mouse, mice, 0.5 h, brain, mean of 3",182 ng/g
same,level at 0.5 h,"[1]; female, CD-1, mouse, mice, 0.5 h, plasma, mean of 3",38200 ng/mL
same,tissue level at time at 2 h,"[1]; female, CD-1, mouse, mice, 2 h, brain, mean of 3",264 ng/g
same,level at 2 h,"[1]; female, CD-1, mouse, mice, 2 h, plasma, mean of 3",29400 ng/mL
same,tissue level at time at 4 h,"[1]; female, CD-1, mouse, mice, 4 h, brain, mean of 3",170 ng/g
same,level at 4 h,"[1]; female, CD-1, mouse, mice, 4 h, plasma, mean of 3",25400 ng/mL
same,tissue level at time at 7 h,"[1]; female, CD-1, mouse, mice, 7 h, brain, mean of 3",189 ng/g
same,level at 7 h,"[1]; female, CD-1, mouse, mice, 7 h, plasma, mean of 3",7150 ng/mL
same,level at 24 h,"[1]; female, CD-1, mouse, mice, 24 h, plasma, individual animals, read-out: Plasma concentration, individual mice 1-3",15 ng/mL
same,half-life at 1 µM,Mouse plasma stability,1.05 h
same,MC4R selectivity vs MC1R,human MC1R,0.92
